# In patent publication US8791132B2, “Compounds and methods for treatment of hypertension” (Medivation Technologies, Inc., priority 2011, dated 2014):
# Like-named read-outs stand apart in the source and are kept apart here.
# How the values were obtained:
# [1] = target: T1, human recombinant adrenergic α2B receptor (Homo sapiens, UniProt P18089); test: Radioligand binding, adrenergic α2B ([3H]Rauwolscine); details: [3H]Rauwolscine; for Percentage inhibition of ligand binding, Adrenergic α2B: 0.03 µM
# T1 construct: expressed in transfected cells; host or cells: CHO-K1
# T1 sequence (P18089 1-450): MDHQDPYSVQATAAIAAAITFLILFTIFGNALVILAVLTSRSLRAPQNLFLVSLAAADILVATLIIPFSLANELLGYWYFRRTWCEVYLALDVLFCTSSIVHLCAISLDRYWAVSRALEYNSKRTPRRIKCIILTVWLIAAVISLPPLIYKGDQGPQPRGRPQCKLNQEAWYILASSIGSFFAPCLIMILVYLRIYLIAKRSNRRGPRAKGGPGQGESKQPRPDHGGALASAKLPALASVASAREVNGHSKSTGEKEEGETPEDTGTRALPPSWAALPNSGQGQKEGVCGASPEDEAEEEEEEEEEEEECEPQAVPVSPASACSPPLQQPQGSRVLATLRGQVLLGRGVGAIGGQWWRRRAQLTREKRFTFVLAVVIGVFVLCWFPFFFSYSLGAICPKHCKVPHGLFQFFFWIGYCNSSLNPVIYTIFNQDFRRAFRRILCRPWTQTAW
# How it was run: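 Assay used CHO-K1-expressed human α2B receptor in Tris-HCl pH 7.4 buffer with MgCl2, EDTA and BSA; 60 min incubation at 25 °C.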
# [2] = target: T2, human recombinant adrenergic α2A receptor (Homo sapiens, UniProt P08913); test: Radioligand binding, adrenergic α2A ([3H]MK-912); details: [3H]MK-912
# T2 construct: expressed in transfected cells; host or cells: insect Sf9 cells
# T2 sequence (P08913 1-465): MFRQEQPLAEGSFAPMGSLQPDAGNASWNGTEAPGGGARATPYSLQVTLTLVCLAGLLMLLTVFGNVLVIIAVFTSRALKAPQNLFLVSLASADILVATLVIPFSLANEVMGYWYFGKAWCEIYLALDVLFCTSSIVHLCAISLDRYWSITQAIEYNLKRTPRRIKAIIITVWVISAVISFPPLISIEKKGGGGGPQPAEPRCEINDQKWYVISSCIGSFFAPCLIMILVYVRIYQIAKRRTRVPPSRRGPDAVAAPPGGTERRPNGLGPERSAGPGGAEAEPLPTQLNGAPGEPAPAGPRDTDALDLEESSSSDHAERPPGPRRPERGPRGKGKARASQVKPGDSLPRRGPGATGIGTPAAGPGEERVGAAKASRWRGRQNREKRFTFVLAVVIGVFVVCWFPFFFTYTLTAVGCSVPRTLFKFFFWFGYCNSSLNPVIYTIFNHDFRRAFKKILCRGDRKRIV
# How it was run: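 Sf9-expressed receptor was incubated with compound for 60 min at 25 °C in modified Tris-HCl buffer, pH 7.4. Nonspecific binding was taken as that remaining with 10 μM WB-4101.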
# [3] = target: T3, rat adrenergic α1B receptor (Rattus norvegicus, UniProt P15823); test: Radioligand binding, adrenergic α1B ([3H]Prazosin); details: [3H]Prazosin; for Percentage inhibition of ligand binding, Adrenergic α1B: 0.1 µM
# T3 construct: rat adrenergic α1B receptor obtained from Wistar Rat liver; from tissue; host or cells: Wistar rat liver
# T3 sequence (P15823 1-515): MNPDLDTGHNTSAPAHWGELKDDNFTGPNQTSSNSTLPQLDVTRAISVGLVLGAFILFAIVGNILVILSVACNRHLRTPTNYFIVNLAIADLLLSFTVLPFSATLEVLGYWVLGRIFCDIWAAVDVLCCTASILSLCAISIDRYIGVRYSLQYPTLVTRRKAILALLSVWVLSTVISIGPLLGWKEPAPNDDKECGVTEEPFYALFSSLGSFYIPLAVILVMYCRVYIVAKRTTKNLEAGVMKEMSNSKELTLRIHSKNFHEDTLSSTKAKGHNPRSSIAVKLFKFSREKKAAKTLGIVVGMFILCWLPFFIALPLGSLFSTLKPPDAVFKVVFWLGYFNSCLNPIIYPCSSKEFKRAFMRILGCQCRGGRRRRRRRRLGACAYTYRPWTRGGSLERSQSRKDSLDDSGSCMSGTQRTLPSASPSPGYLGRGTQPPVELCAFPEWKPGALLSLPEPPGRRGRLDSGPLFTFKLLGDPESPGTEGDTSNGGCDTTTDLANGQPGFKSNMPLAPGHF
# How it was run: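 Incubation ran 60 min at 25 °C in Tris-HCl buffer (50 mM, pH 7.4, 0.5 mM EDTA) with Wistar rat liver α1B receptor. 10 μM phentolamine set non-specific binding.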
# [4] = compound at 0.03 μM, repeat assays, each datapoint shown
# [5] = compound at 0.1 μM, repeat assays, each datapoint shown, 0.1 µM
# [6] = compound at 0.1 μM, repeat assays, each datapoint shown
# [7] = compound at 0.03 μM, repeat assays, each datapoint shown, read-out: Percentage inhibition of ligand binding, Adrenergic α2B
# [8] = compound at 0.1 μM, repeat assays, each datapoint shown, read-out: Percentage inhibition of ligand binding, Adrenergic α2A
# [9] = compound at 0.1 μM, repeat assays, each datapoint shown, read-out: Percentage inhibition of ligand binding, Adrenergic α1B
# [10] = read-out: Percentage inhibition of ligand binding, Adrenergic α2B (0.03 μM), compound at 0.03 μM, repeat datapoints each shown
# [11] = read-out: Percentage inhibition of ligand binding, Adrenergic α2A (0.1 μM), compound at 0.1 μM, repeat datapoints each shown
# [12] = read-out: Percentage inhibition of ligand binding, Adrenergic α1B (0.1 μM), compound at 0.1 μM, repeat datapoints each shown
"inhibition at 0.03 µM [1, 10]","inhibition at 0.1 µM [2, 11]","inhibition at 0.1 µM [3, 12]",SMILES,further results
–,–,–,Cc1ccc2c(c1)c1c(n2CC(O)c2ccncc2)CN(C)CC1 (stereo not drawn) [8a],"Percentage inhibition of ligand binding, Adrenergic α2B [1, 4]: 22%; Percentage inhibition of ligand binding, Adrenergic α2A [2, 5]: 15%; Percentage inhibition of ligand binding, Adrenergic α1B [3, 6]: 39%"
–,–,–,"Cc1ccc2c(c1)c1c(n2CC(C)(O)c2cccnc2)CN(C)CC1 (stereo not drawn) [14b, 1-(2,6-dimethyl-1,2,3,4-tetrahydro-β-carbolin-9-yl)-2-pyridin-3-yl-propan-2-ol]","inhibition at 0.03 µM [1, 7]: 14%; inhibition at 0.1 µM [2, 8]: -6%; inhibition at 0.1 µM [3, 9]: 25%"
–,–,–,Cc1ccc2c(c1)c1c(n2CC(C)(O)c2ccc(C)nc2)CCN(C)C1 (stereo not drawn) [29b],"inhibition at 0.03 µM [1, 7]: 46%; Percentage inhibition of ligand binding, Adrenergic α2A [2, 6]: 10%; Percentage inhibition of ligand binding, Adrenergic α1B [3, 6]: 14%"
–,–,–,CN1CCc2c(c3cc(Cl)ccc3n2CC(C)(O)c2cccnc2)C1 (stereo not drawn) [31b],"inhibition at 0.03 µM [1, 7]: 36%; inhibition at 0.1 µM [2, 8]: 14%; inhibition at 0.1 µM [3, 9]: 3%"
–,–,–,CCC(O)(Cn1c2c(c3cc(C)ccc31)CN(C)CC2)c1ccncc1 (stereo not drawn) [35a],"inhibition at 0.1 µM ([1]; compound at 0.1 μM, repeat assays, each datapoint shown, read-out: Percentage inhibition of ligand binding, Adrenergic α2B): 62%; inhibition at 0.1 µM [2, 8]: 20%; inhibition at 0.1 µM [3, 9]: 9%"
–,–,–,Cc1ccc2c(c1)c1c(n2CC(O)c2cc[n+]([O-])cc2)CCN(C)C1 (stereo not drawn) [69a],"inhibition at 0.03 µM [1, 7]: 10%; inhibition at 0.1 µM [2, 8]: 11%; inhibition at 0.1 µM [3, 9]: 4%"
–,–,–,Cc1ccc2c(c1)c1c(n2CC(O)c2cc[n+]([O-])cc2)CCN(C)C1 (stereo not drawn) [69b],"Percentage inhibition of ligand binding, Adrenergic α2B [1, 4]: 19%; Percentage inhibition of ligand binding, Adrenergic α2A [2, 5]: 7%; Percentage inhibition of ligand binding, Adrenergic α1B [3, 6]: 8%"
1%,4%,13%,Cc1ccc2c(c1)c1c(n2C(C)C(O)c2ccncc2)CCN(C)C1 (stereo not drawn) [127b],–
54%,22%,45%,Cc1ccc2c(c1)c1c(n2CC(C)(O)c2cccnc2)CNCC1 (stereo not drawn) [128b],–
30%,10%,24%,"Cc1ccc2c(c1)c1c(n2CC(O)c2cnn(C)c2)CCN(C)C1 (stereo not drawn) [131a, 2-(1,2,3,4-tetrahydro-2,8-dimethylpyrido[4,3-b]indol-5-yl)-1-(1-methyl-1H-pyrazol-4-yl)ethanol]",–
52%,13%,57%,Cc1ccc2c(c1)c1c(n2CC(O)c2ccncc2C)CCN(C)C1 (stereo not drawn) [133a],–
42%,4%,27%,"Cc1cnc2c(c1)c1c(n2CCc2cccnc2)CCN2CCCC12 (stereo not drawn) [134a, 9-methyl-6-(2-pyridin-3-yl-ethyl)-2,3,4,5,6,10c-hexahydro-1H-3a,6,7-triaza-cyclopenta[c]fluorene]",–
40%,1%,57%,"Cc1ccc2c(c1)c1c(n2CC(O)c2ccc(C(N)=O)nc2)CCN(C)C1 (stereo not drawn) [144a, 5-[2-(2,8-dimethyl-1,2,3,4-tetrahydro-pyrido[4,3-b]indol-5-yl)-1-hydroxy-ethyl]-pyridine-2-carboxylic acid amide]",–
82%,56%,77%,"Cc1ccc(C(O)Cn2c3c(c4cc(C)ccc42)CN(C)CC3)cc1 (stereo not drawn) [183a, 2-(1,2,3,4-tetrahydro-2,8-dimethylpyrido[4,3-b]indol-5-yl)-1-p-tolylethanol]",–
106%,98%,100%,"C/C(=C\n1c2c(c3cc(C)ccc31)C1CCCN1CC2)c1ccc(F)cc1 (stereo not drawn) [194a, 7-(2-(4-fluorophenyl)prop-1-enyl)-10-methyl-2,3,5,6,7,11c-hexahydro-1H-indolizino[7,8-b]indole]",–
81%,31%,82%,"Cc1ccc2c(c1)c1c(n2CCc2ccc(C)nc2)CCN2CCCC12 (stereo not drawn) [197a, 9-methyl-6-[2-(6-methyl-pyridin-3-yl)-ethyl]-2,3,4,5,6,10c-hexahydro-1H-3a, 6-diaza-cyclopenta[c]fluorene]",–
